Measured values published in the supplement of paper PMC10307832.

Key:
Assay in all cases: relative viability (nuclei count vs DMSO), 5 days (fraction); higher = more cells survive
Bexarotene + Lapatinib = compound: C=C(c1ccc(C(=O)O)cc1)c1cc2c(cc1C)C(C)(C)CCC2(C)C [Bexarotene] + CS(=O)(=O)CCNCc1ccc(-c2ccc3ncnc(Nc4ccc(OCc5cccc(F)c5)c(Cl)c4)c3c2)o1 [Lapatinib] (partner 2 µM)
Method in brief: (§1)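 One day after seeding in 1536-well plates, lung cancer cell lines were dosed by pin tool. Dosing was either single-drug or a fixed anchor-drug dose plus five library-drug doses (not always all listed) in √10 steps. After 5 days, nuclei were stained in one fix-and-stain step and counted on 4× images, and relative viability is the nuclei count of treated wells over that of vehicle wells, given as the median of duplicate plates.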

Bexarotene + Bortezomib = compound: C=C(c1ccc(C(=O)O)cc1)c1cc2c(cc1C)C(C)(C)CCC2(C)C [Bexarotene] + CC(C)C[C@H](NC(=O)[C@H](Cc1ccccc1)NC(=O)c1cnccn1)B(O)O [Bortezomib] (partner 0.002 µM)
Method in brief: as §1

Bexarotene + Decitabine = compound: C=C(c1ccc(C(=O)O)cc1)c1cc2c(cc1C)C(C)(C)CCC2(C)C [Bexarotene] + Nc1ncn([C@H]2C[C@H](O)[C@@H](CO)O2)c(=O)n1 [Decitabine] (partner 2 µM)
Method in brief: as §1

Bexarotene + AZD7762 = compound: C=C(c1ccc(C(=O)O)cc1)c1cc2c(cc1C)C(C)(C)CCC2(C)C [Bexarotene] + NC(=O)Nc1cc(-c2cccc(F)c2)sc1C(=O)N[C@H]1CCCNC1 [AZD7762] (partner 0.2 µM)
Method in brief: as §1

Row | Cell Line | relative viability (Bexarotene + Lapatinib; first compound 0.08 µM) | relative viability (Bexarotene + Lapatinib; first compound 0.253 µM) | relative viability (Bexarotene + Lapatinib; first compound 0.8 µM) | relative viability (Bexarotene + Lapatinib; first compound 2.53 µM) | relative viability (Bexarotene + Lapatinib; first compound 8 µM) | relative viability (Bexarotene + Bortezomib; first compound 0.08 µM) | relative viability (Bexarotene + Bortezomib; first compound 0.253 µM) | relative viability (Bexarotene + Bortezomib; first compound 0.8 µM) | relative viability (Bexarotene + Bortezomib; first compound 2.53 µM) | relative viability (Bexarotene + Bortezomib; first compound 8 µM) | relative viability (Bexarotene + Decitabine; first compound 0.08 µM) | relative viability (Bexarotene + Decitabine; first compound 0.253 µM) | relative viability (Bexarotene + Decitabine; first compound 0.8 µM) | relative viability (Bexarotene + Decitabine; first compound 2.53 µM) | relative viability (Bexarotene + Decitabine; first compound 8 µM) | relative viability (Bexarotene + AZD7762; first compound 0.08 µM) | relative viability (Bexarotene + AZD7762; first compound 0.253 µM) | relative viability (Bexarotene + AZD7762; first compound 0.8 µM) | relative viability (Bexarotene + AZD7762; first compound 2.53 µM) | relative viability (Bexarotene + AZD7762; first compound 8 µM)
1 | NCI-H1734 | 1.02 | 1.04 | 1.07 | 0.942 | 0.944 | 0.896 | 0.98 | 0.936 | 0.87 | 0.818 | 0.522 | 0.461 | 0.498 | 0.483 | 0.441 | 0.552 | 0.536 | 0.522 | 0.488 | 0.526
2 | NCI-H1755 | 1.07 | 1.29 | 1.1 | 0.994 | 1.02 | 1.02 | 1.03 | 1.02 | 1 | 0.957 | 0.783 | 0.743 | 0.783 | 0.778 | 0.75 | 0.536 | 0.6 | 0.439 | 0.569 | 0.54
3 | NCI-H1792 | 0.883 | 0.763 | 0.794 | 0.574 | 0.837 | 0.871 | 0.981 | 0.809 | 0.761 | 0.681 | 0.548 | 0.527 | 0.493 | 0.531 | 0.425 | 0.64 | 0.572 | 0.526 | 0.593 | 0.526
4 | NCI-H1915 | 1.1 | 0.793 | 0.979 | 0.999 | 1.04 | 1 | 0.989 | 0.896 | 0.993 | 0.911 | 0.272 | 0.259 | 0.274 | 0.255 | 0.23 | 0.707 | 0.724 | 0.674 | 0.653 | 0.655
5 | NCI-H1975 | 1.25 | 1.01 | 1 | 1.1 | 0.988 | 0.414 | 0.376 | 0.452 | 0.428 | 0.346 | 0.359 | 0.393 | 0.443 | 0.406 | 0.392 | 0.676 | 0.775 | 0.672 | 0.666 | 0.668
6 | NCI-H1993 | 0.858 | 0.826 | 0.809 | 0.802 | 0.814 | 1.01 | 0.991 | 0.984 | 0.978 | 1.1 | 0.537 | 0.484 | 0.554 | 0.576 | 0.608 | 0.805 | 0.83 | 0.618 | 0.851 | 0.636
7 | NCI-H2085 | 0.739 | 0.723 | 0.596 | 0.703 | 0.731 | 1.04 | 0.918 | 0.929 | 0.946 | 0.939 | 0.539 | 0.545 | 0.512 | 0.487 | 0.536 | 0.868 | 0.92 | 0.803 | 0.789 | 0.815
8 | NCI-H2087 | 1.06 | 1.16 | 1.2 | 0.98 | 0.883 | 0.877 | 0.972 | 0.979 | 0.753 | 0.725 | 0.303 | 0.277 | 0.242 | 0.227 | 0.215 | 1.33 | 1.3 | 1.2 | 1.35 | 1.16
9 | NCI-H2126 | 0.768 | 0.741 | 0.73 | 0.81 | 0.757 | 1.13 | 1.17 | 1.08 | 1.12 | 1.11 | 0.631 | 0.696 | 0.575 | 0.571 | 0.554 | 1.07 | 0.971 | 0.916 | 0.994 | 1.02
10 | NCI-H2347 | 1.18 | 1.1 | 0.669 | 1.06 | 0.917 | 1.2 | 0.904 | 0.818 | 0.664 | 0.835 | 0.621 | 0.705 | 0.606 | 0.686 | 0.565 | 0.794 | 0.86 | 0.688 | 0.691 | 0.754
11 | NCI-H2405 | 1.16 | 1.07 | 0.824 | 1.08 | 1.24 | 1.07 | 0.945 | 0.836 | 0.896 | 0.92 | 0.887 | 0.729 | 0.653 | 0.711 | 0.775 | 0.887 | 0.681 | 0.711 | 0.761 | 0.801
12 | NCI-H3122 | 1.09 | 1.06 | 1.12 | 1.08 | 1.12 | 1.09 | 1.05 | 1.09 | 1.15 | 1.13 | 0.521 | 0.385 | 0.416 | 0.415 | 0.365 | 1.05 | 1 | 0.944 | 0.968 | 1.13
13 | PC-3 [JPC-3] | 0.519 | 0.48 | 0.427 | 0.466 | 0.446 | 0.9 | 0.843 | 0.68 | 0.858 | 0.771 | 0.874 | 0.865 | 0.88 | 0.745 | 0.781 | 0.958 | 0.705 | 0.785 | 0.651 | 0.709
14 | PC-14 | 0.347 | 0.401 | 0.365 | 0.327 | 0.337 | 0.926 | 0.885 | 0.856 | 0.825 | 0.719 | 0.288 | 0.251 | 0.251 | 0.206 | 0.209 | 0.357 | 0.436 | 0.415 | 0.299 | 0.338
15 | RERF-LC-KJ | 0.798 | 0.799 | 0.702 | 0.767 | 0.757 | 1.17 | 1.12 | 1.03 | 1.06 | 1.17 | 0.692 | 0.656 | 0.682 | 0.7 | 0.739 | 0.97 | 0.918 | 0.873 | 1.03 | 0.849
